According to patent US20230355599A1, “BIOMARKERS FOR CBL, AND COMPOSITIONS AND METHODS FOR THEIR USE” (NURIX THERAPEUTICS, INC., priority 2022, published 2023):

Test system: phosphorylated ZAP70
Experiment: Phosphorylated ZAP70 in circulating CD8+ T cells after oral dosing of cynomolgus monkeys (flow cytometry, ex vivo anti-CD3/CD28 stimulation)
Procedure: To assess these proximal biomarkers of Cbl-b inhibition on CD8^+ T cells, pharmacodynamic analysis was performed in conjunction with a pharmacokinetic study conducted at Charles River Laboratories. Circulating blood was obtained from cynomolgus monkeys treated with 0.3, 1, 3 or 10 mg/kg of Compound 23 after a single dose and after 3 doses. The response to Cbl-b inhibition on proximal biomarkers (pHS1, pPLCγ2, and pZAP70) was measured in CD8^+ T cells using flow cytometry. This technique is highly quantitative and can measure multiple phosphorylation markers in different cell populations within the same sample.
Compound 23 was formulated in vehicle (0.2% Tween 80 in DI water+1 eq HCL) and aliquoted into individual (not serially diluted) dosing solutions of 0.3, 1, 3 and 10 mg/mL by stirring for 5-10 min, vortexing, and sonicating again as necessary to produce an even suspension that was stirred constantly at 4° C. to achieve and maintain a homogenous suspension. To prepare vehicle, 0.2% Tween 80 in deionized (DI) water, water was measured into a beaker with continuous stirring. Tween 80 was added sequentially, and stirring continued until the solution dissolved; the solution was stored at 2-8° C.
For pharmacodynamic analysis, whole blood was obtained from cynomolgus monkeys and used for flow cytometry assays to evaluate phosphorylated biomarkers, pHS1, pPLCγ2, and pZAP70, in circulating CD8^+ T cells.
On the day of dosing, blood samples were collected via femoral venipuncture in accordance with test facility standard operating procedures. 1 mL/tube of whole blood was collected pre-dose (time 0) and at 0.5, 1, 2, 4, 6, and 24 hours post-dose and added into 2 types of TruCulture tubes (Myriad) for pharmacodynamic analysis. One tube contained media alone and is denoted as “Null”, and the second tube contained 2 μg/mL anti-CD3 and anti-CD28, which were prepared at Nurix prior to the study using cynomolgus specific anti-CD3 (BD Biosciences; SP34-2) and anti-CD28 (Bio X cell; CD28.2) and denoted as “CD3/CD28”. Tubes were shipped by overnight courier on cold pack the day of collection and analyzed for phosphorylated biomarkers of Cbl-b inhibition by flow cytometry.
Following PD collection, upon receipt of TruCulture tubes, each tube was inverted 5-6 times to ensure a mixed suspension of blood. 30 μg of goat anti-mouse IgG (H+L) antibody (Invitrogen) was added to cross-link the stimulation antibodies and induce synchronized cellular stimulation. Cells were stimulated for 60 minutes alongside non-stimulated controls for each time point.
All buffers (Phosflow Lyse/Fix Buffer 5×, Phosflow Perm Buffer I; BD Biosciences) were prepared according to the manufacturer's instructions. After 60 minutes of goat anti-mouse IgG (H+L) antibody stimulation, one volume of blood was mixed with 20 volumes of pre-warmed BD Phosflow Lyse/Fix Buffer (1×) by repeated pipetting (8-10 times), then incubated in a 37° C. water bath for 10 min. Cells were washed and centrifuged at 500×g for 5 min (2×) with PBS. Following centrifugation, cell pellets were resuspended in cold BD Phosflow Perm Buffer I (BD) and incubated at 4° C. for 20 min. […]

C[C@H]1CCCN(Cc2cc3c(c(C(F)(F)F)c2)CN(c2cccc([C@]4(c5nncn5C)C[C@@H](C)C4)c2)C3=O)C1 [Compound 23]
phosphorylated ZAP70 in comparison to baseline (multiple doses of 10 mg/kg, 3 days of daily oral dosing): significant increases | time of peak increase of phosphorylated ZAP70 (multiple doses of 10 mg/kg, 4 hours post dose): 76 h | time of maximal signal, phosphorylated ZAP70 (single dose oral 10 mg/kg): 2 hours post dose | phosphorylated ZAP70 sustained after 24 hours (single dose oral 10 mg/kg, after 24 hours): significant increase | phosphorylated ZAP70 in comparison to baseline (single dose oral 10 mg/kg, circulating CD8+ T cells, anti-CD3/CD28 stimulated): significant increases
